Reference: ChEMBL document CHEMBL1909046, “DrugMatrix in vitro pharmacology data”

Key:
[1] = DRUGMATRIX: Glutamate, NMDA, Phencyclidine radioligand binding (ligand: [3H] TCP); format: cell membranes, Rattus norvegicus, Wistar, Cerebral cortex, Membrane; conditions: Not Active = under 50% inhibition at 10 µM
[2] = biological target: T1, C-X-C chemokine receptor type 2 (Homo sapiens, UniProt P25025); format: cell membranes, Membrane; conditions: cho-k1; also: in other assays of this panel Not Active means under 50% inhibition at 10 µM
T1 sequence (P25025 whole entry): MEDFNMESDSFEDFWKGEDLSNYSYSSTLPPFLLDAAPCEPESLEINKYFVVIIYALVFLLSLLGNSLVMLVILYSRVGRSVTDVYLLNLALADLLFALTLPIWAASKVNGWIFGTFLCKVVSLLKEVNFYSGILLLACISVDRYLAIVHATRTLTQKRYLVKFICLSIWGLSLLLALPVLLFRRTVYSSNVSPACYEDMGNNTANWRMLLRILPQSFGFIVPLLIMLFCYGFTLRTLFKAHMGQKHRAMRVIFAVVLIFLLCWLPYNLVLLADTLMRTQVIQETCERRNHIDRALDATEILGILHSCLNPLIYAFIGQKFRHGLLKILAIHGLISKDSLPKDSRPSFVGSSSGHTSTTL

[3] = biological target: T2, Receptor-type tyrosine-protein phosphatase C (Homo sapiens, UniProt P08575); parameters: species or system Escherichia coli;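 also: inhibition of CD45 enzyme activity measured using DiFMUP as substrate; in other assays of this panel Not Active means under 50% inhibition at 10 µM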
T2 sequence (P08575 whole entry): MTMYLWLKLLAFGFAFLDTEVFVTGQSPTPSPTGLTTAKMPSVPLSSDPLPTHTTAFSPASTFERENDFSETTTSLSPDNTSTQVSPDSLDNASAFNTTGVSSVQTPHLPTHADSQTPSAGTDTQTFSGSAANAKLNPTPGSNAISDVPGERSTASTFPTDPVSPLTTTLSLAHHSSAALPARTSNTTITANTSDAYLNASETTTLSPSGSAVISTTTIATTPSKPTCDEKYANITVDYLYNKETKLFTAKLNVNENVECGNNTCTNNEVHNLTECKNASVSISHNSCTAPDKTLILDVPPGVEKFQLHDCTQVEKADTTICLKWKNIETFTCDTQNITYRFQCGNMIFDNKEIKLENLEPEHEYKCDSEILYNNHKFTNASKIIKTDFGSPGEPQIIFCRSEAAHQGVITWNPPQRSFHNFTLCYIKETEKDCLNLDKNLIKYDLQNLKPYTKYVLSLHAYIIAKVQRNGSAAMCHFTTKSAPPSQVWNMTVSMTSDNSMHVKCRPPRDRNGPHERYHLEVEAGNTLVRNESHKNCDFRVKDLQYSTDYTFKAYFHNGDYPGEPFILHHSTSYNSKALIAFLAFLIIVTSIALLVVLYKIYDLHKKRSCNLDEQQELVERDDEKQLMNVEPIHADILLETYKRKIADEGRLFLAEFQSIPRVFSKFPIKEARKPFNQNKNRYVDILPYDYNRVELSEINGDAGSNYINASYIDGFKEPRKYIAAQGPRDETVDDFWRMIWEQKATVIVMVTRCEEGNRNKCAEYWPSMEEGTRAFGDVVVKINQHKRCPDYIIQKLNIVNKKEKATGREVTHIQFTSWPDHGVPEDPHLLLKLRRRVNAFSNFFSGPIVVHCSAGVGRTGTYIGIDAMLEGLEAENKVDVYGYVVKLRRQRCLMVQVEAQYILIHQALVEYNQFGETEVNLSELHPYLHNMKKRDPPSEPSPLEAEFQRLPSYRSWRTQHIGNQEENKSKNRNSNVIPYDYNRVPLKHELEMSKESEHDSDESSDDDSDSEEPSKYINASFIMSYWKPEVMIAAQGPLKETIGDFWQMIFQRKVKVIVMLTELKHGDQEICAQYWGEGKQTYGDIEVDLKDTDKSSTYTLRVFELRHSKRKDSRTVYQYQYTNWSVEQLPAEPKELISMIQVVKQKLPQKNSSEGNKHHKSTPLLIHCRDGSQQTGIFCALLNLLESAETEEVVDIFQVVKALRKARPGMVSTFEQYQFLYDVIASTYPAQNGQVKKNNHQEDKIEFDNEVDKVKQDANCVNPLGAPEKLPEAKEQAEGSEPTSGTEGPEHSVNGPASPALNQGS

Calcitonin receptor = biological target: T3, Calcitonin receptor (Homo sapiens, UniProt P30988); format: cell membranes, Membrane; conditions: t47d; also: in other assays of this panel Not Active means under 50% inhibition at 10 µM
T3 sequence (P30988 whole entry): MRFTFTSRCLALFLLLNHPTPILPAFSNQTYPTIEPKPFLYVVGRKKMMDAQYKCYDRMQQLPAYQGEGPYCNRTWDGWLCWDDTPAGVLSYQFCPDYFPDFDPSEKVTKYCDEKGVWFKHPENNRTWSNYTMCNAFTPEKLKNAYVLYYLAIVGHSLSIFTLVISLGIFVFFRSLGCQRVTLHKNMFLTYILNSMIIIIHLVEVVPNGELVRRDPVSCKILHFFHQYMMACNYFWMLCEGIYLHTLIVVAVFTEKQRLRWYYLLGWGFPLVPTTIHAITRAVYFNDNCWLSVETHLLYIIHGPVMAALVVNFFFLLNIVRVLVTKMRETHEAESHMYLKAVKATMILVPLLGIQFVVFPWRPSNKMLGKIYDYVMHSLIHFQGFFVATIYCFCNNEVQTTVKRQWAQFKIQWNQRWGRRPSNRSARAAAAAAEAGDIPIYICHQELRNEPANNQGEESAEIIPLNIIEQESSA

Cathepsin G = biological target: T4, Cathepsin G (Homo sapiens, UniProt P08311); format: tissue-based; conditions: neutrophil;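 also: inhibition of Cathepsin G enzyme activity, tested on an AMC-conjugated peptide substrate; in other assays of this panel Not Active means under 50% inhibition at 10 µM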
T4 sequence (P08311 whole entry): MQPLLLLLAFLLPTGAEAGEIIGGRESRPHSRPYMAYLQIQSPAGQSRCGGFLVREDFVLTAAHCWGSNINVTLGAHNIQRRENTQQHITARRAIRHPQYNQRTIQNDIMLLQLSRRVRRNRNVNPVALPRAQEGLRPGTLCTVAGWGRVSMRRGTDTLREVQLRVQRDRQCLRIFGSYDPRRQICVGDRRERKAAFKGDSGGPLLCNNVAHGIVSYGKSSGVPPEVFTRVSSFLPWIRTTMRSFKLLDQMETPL

Nitric oxide synthase 1 = Nitric oxide synthase 1 (Rattus norvegicus, UniProt P29476); format: tissue-based, Cerebellum; also: in other assays of this panel Not Active means under 50% inhibition at 10 µM
Cytochrome P450 2D6 = Cytochrome P450 2D6 (Homo sapiens, UniProt P10635); conditions: bti-tn-5b1-4; also: in other assays of this panel Not Active means under 50% inhibition at 10 µM
D(3) dopamine receptor = D(3) dopamine receptor (Homo sapiens, UniProt P35462); assay: DRUGMATRIX: Dopamine D3 radioligand binding (ligand: [3H] Spiperone); format: cell membranes, CHO, Membrane; conditions: cho
Sequence of D(3) dopamine receptor (P35462 whole entry): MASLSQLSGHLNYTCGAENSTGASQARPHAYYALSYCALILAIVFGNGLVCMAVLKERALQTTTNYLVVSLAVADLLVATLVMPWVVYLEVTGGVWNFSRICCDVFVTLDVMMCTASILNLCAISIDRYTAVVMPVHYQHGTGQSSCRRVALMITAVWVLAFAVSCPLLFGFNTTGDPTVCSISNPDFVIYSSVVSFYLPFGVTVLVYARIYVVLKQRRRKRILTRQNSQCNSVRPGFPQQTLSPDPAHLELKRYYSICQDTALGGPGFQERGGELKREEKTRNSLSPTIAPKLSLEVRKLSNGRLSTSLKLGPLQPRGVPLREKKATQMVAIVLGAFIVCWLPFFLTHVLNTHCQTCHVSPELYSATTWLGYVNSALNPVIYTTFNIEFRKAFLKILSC

Sequence of Cytochrome P450 2D6 (P10635 whole entry): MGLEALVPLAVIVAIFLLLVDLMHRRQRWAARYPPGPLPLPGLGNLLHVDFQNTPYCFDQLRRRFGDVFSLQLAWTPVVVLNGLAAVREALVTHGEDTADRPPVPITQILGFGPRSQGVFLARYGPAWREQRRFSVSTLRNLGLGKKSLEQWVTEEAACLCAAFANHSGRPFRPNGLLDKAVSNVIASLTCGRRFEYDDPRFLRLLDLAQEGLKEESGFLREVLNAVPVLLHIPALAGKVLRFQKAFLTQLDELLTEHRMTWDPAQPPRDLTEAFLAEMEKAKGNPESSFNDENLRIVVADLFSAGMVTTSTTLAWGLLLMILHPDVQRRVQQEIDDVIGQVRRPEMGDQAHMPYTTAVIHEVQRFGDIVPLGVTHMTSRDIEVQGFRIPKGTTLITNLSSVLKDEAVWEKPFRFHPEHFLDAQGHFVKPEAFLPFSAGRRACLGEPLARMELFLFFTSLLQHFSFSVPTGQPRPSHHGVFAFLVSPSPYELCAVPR
Sequence of Nitric oxide synthase 1 (P29476 whole entry): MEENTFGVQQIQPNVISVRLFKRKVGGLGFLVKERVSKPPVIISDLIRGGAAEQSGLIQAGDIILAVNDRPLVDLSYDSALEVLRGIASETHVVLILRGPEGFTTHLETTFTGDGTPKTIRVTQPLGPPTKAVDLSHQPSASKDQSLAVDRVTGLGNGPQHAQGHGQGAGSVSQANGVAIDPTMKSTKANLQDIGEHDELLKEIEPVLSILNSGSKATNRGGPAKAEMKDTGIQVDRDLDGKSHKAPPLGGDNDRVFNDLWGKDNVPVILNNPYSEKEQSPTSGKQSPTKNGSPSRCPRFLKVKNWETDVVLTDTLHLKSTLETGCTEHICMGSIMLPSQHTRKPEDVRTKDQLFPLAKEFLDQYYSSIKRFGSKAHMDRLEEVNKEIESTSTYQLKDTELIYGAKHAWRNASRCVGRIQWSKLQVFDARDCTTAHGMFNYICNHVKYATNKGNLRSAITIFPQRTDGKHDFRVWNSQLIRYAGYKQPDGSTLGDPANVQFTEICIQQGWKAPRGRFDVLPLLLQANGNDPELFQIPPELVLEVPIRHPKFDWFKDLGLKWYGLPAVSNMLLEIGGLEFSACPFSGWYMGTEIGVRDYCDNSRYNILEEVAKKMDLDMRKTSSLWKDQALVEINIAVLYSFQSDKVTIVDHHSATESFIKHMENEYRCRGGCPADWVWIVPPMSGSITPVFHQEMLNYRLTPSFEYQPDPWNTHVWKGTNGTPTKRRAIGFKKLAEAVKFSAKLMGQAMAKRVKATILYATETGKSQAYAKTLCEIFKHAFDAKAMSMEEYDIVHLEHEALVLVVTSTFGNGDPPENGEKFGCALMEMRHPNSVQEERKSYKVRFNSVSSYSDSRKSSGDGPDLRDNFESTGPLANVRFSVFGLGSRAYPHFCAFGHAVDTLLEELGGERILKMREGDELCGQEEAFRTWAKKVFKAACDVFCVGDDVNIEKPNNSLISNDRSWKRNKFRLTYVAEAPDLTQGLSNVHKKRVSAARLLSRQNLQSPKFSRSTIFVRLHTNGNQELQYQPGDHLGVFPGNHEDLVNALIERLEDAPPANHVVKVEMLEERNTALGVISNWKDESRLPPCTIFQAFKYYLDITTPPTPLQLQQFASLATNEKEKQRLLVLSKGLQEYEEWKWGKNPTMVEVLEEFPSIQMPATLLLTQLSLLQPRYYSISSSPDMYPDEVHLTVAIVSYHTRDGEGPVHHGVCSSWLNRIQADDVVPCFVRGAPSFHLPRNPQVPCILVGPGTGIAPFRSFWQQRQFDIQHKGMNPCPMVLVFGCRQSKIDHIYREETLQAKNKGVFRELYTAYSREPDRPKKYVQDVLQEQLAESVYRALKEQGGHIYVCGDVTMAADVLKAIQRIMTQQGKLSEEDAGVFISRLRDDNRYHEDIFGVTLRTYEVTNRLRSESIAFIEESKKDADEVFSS

SODIUM ORTHOVANAD
Not Active: IC50 [1] | Ki [1] | IC50 [2] | Ki [2] | IC50 [3] | Ki [3] | IC50 (Calcitonin receptor) | Ki (Calcitonin receptor) | IC50 (Cathepsin G) | Ki (Cathepsin G) | IC50 (Nitric oxide synthase 1) | Ki (Nitric oxide synthase 1) | IC50 (Cytochrome P450 2D6) | Ki (Cytochrome P450 2D6) | IC50 (D(3) dopamine receptor) | Ki (D(3) dopamine receptor)

O=C(O)c1cn(-c2ccc(F)cc2)c2cc(N3CCNCC3)c(F)cc2c1=O [SARAFLOXACIN]
Not Active: IC50 [1] | Ki [1] | IC50 [2] | IC50 [3] | IC50 (Calcitonin receptor) | IC50 (Cathepsin G) | IC50 (Nitric oxide synthase 1) | IC50 (Cytochrome P450 2D6) | Ki (Cytochrome P450 2D6) | IC50 (D(3) dopamine receptor)

Nc1cc(N2CCCCC2)nc(N)[n+]1[O-] [MINOXIDIL]
Not Active: IC50 [1] | Ki [1] | IC50 [2] | IC50 [3] | IC50 (Calcitonin receptor) | IC50 (Cathepsin G) | IC50 (Nitric oxide synthase 1) | IC50 (Cytochrome P450 2D6) | Ki (Cytochrome P450 2D6) | IC50 (D(3) dopamine receptor)

CC(C)NCC(O)c1ccc(NS(C)(=O)=O)cc1 (stereo unspecified) [SOTALOL]
Not Active: IC50 [1] | Ki [1] | IC50 [2] | IC50 [3] | IC50 (Calcitonin receptor) | IC50 (Cathepsin G) | IC50 (Nitric oxide synthase 1) | IC50 (Cytochrome P450 2D6) | Ki (Cytochrome P450 2D6) | IC50 (D(3) dopamine receptor)

CS(=O)(=O)c1ccc([C@@H](O)[C@@H](CO)NC(=O)C(Cl)Cl)cc1 [THIAMPHENICOL]
Not Active: IC50 [1] | Ki [1] | IC50 [2] | IC50 [3] | IC50 (Calcitonin receptor) | IC50 (Cathepsin G) | IC50 (Nitric oxide synthase 1) | IC50 (Cytochrome P450 2D6) | Ki (Cytochrome P450 2D6) | IC50 (D(3) dopamine receptor)

CC(c1cc2ccccc2s1)N(O)C(N)=O (stereo unspecified) [ZILEUTON]
Not Active: IC50 [1] | Ki [1] | IC50 [2] | IC50 [3] | IC50 (Calcitonin receptor) | IC50 (Cathepsin G) | IC50 (Nitric oxide synthase 1) | IC50 (Cytochrome P450 2D6) | Ki (Cytochrome P450 2D6) | IC50 (D(3) dopamine receptor)

CC[C@@H](C(=O)[C@@H](C)[C@@H](O)[C@H](C)[C@@H]1O[C@@H]([C@@H](CC)C(=O)O)CC[C@@H]1C)[C@H]1O[C@]2(C=C[C@@H](O)[C@]3(CC[C@@](C)([C@H]4CC[C@](O)(CC)[C@H](C)O4)O3)O2)[C@H](C)C[C@@H]1C [SALINOMYCIN]
Not Active: IC50 [1] | Ki [1] | IC50 [2] | IC50 [3] | IC50 (Calcitonin receptor) | IC50 (Cathepsin G) | IC50 (Nitric oxide synthase 1) | IC50 (Cytochrome P450 2D6) | Ki (Cytochrome P450 2D6) | IC50 (D(3) dopamine receptor)

CC(C)Cc1ccc([C@@H](C)C(=O)O)cc1 [(R)-IBUPROPHEN]
Not Active: IC50 [1] | Ki [1] | IC50 [2] | IC50 [3] | IC50 (Calcitonin receptor) | IC50 (Cathepsin G) | IC50 (Nitric oxide synthase 1) | IC50 (Cytochrome P450 2D6) | Ki (Cytochrome P450 2D6) | IC50 (D(3) dopamine receptor)

NC(=O)N1C(=O)/C(=C(\O)c2cccs2)c2cc(Cl)ccc21 [TENIDAP]
Not Active: IC50 [1] | Ki [1] | IC50 [2] | IC50 [3] | IC50 (Calcitonin receptor) | IC50 (Cathepsin G) | IC50 (Nitric oxide synthase 1) | IC50 (Cytochrome P450 2D6) | Ki (Cytochrome P450 2D6) | IC50 (D(3) dopamine receptor)
